From PubChem BioAssay (NCI)
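48-hour exposure; five concentrations; linearly interpolated endpoints. TGI denotes the concentration required for complete inhibition of growth.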

Key:
Experiment in all cases: NCI tumour cell line growth inhibition, 48 h
SNB-78 CNS = test system: SNB-78 CNS
SF-295 CNS = test system: SF-295 CNS
A549 NSCLC = test system: A549 NSCLC
M19-MEL melanoma = test system: M19-MEL melanoma
RPMI-8226 leukemia = test system: RPMI-8226 leukemia
HL-60(TB) leukemia = test system: HL-60(TB) leukemia
SK-OV-3 ovarian = test system: SK-OV-3 ovarian
NCI-H226 lung = test system: NCI-H226 lung
SNB-19 CNS = test system: SNB-19 CNS
SF-539 CNS = test system: SF-539 CNS
P388 leukemia = test system: P388 leukemia
NCI-H460 lung = test system: NCI-H460 lung
NCI/ADR-RES ovarian = test system: NCI/ADR-RES ovarian
NCI-H522 lung = test system: NCI-H522 lung
DLD-1 colon = test system: DLD-1 colon
HCT-116 colon = test system: HCT-116 colon
UO-31 renal = test system: UO-31 renal
MALME-3M melanoma = test system: MALME-3M melanoma
SN12K1 renal = test system: SN12K1 renal
SK-MEL-28 melanoma = test system: SK-MEL-28 melanoma
MCF7 breast = test system: MCF7 breast
OVCAR-8 ovarian = test system: OVCAR-8 ovarian
XF 498 CNS = test system: XF 498 CNS
DMS 114 small cell lung = test system: DMS 114 small cell lung
KM20L2 colon = test system: KM20L2 colon
UACC-62 melanoma = test system: UACC-62 melanoma
LOX IMVI melanoma = test system: LOX IMVI melanoma
HCT-15 colon = test system: HCT-15 colon
P388/ADR leukemia = test system: P388/ADR leukemia
UACC-257 melanoma = test system: UACC-257 melanoma
IGROV1 ovarian = test system: IGROV1 ovarian
SW-620 colon = test system: SW-620 colon
HOP-62 NSCLC = test system: HOP-62 NSCLC
CAKI-1 renal = test system: CAKI-1 renal
KM12 colon = test system: KM12 colon
SK-MEL-5 melanoma = test system: SK-MEL-5 melanoma
OVCAR-4 ovarian = test system: OVCAR-4 ovarian
HT29 colon = test system: HT29 colon
DMS 273 small cell lung = test system: DMS 273 small cell lung
A498 renal = test system: A498 renal
EKVX NSCLC = test system: EKVX NSCLC
COLO 205 colon = test system: COLO 205 colon
SNB-75 CNS = test system: SNB-75 CNS
OVCAR-3 ovarian = test system: OVCAR-3 ovarian
OVCAR-5 ovarian = test system: OVCAR-5 ovarian
U251 CNS = test system: U251 CNS
HOP-92 NSCLC = test system: HOP-92 NSCLC
NCI-H23 lung = test system: NCI-H23 lung
SN12C renal = test system: SN12C renal
HCC-2998 colon = test system: HCC-2998 colon
K-562 leukemia = test system: K-562 leukemia
RXF 393 renal = test system: RXF 393 renal
MOLT-4 leukemia = test system: MOLT-4 leukemia
CCRF-CEM leukemia = test system: CCRF-CEM leukemia
SF-268 CNS = test system: SF-268 CNS
SK-MEL-2 melanoma = test system: SK-MEL-2 melanoma
HOP-18 NSCLC = test system: HOP-18 NSCLC

`CCCN1C(=O)/C(=C(/O)C(=O)OCC)C(c2ccc(OC)c(OC)c2)C1=O` (configuration not stated) showed a TGI (SNB-78 CNS) of over 100 µM, a TGI (SF-295 CNS) of over 100 µM and a TGI (A549 NSCLC) of over 100 µM. The TGI (M19-MEL melanoma) was over 100 µM, the TGI (RPMI-8226 leukemia) was over 100 µM and the TGI (HL-60(TB) leukemia) was over 100 µM. For the same compound, the TGI (SK-OV-3 ovarian) was over 100 µM, the TGI (NCI-H226 lung) was over 100 µM and the TGI (SNB-19 CNS) was over 100 µM. The TGI (SF-539 CNS) was over 100 µM, the TGI (P388 leukemia) was over 100 µM and the TGI (NCI-H460 lung) was over 31.6 µM. For the same compound, the TGI (NCI/ADR-RES ovarian) was over 100 µM, the TGI (NCI-H522 lung) was over 100 µM and the TGI (DLD-1 colon) was over 100 µM. For the same compound, the TGI (HCT-116 colon) was over 100 µM, the TGI (UO-31 renal) was over 100 µM and the TGI (MALME-3M melanoma) was over 100 µM. It also gave a TGI (SN12K1 renal) of over 100 µM, a TGI (SK-MEL-28 melanoma) of over 100 µM and a TGI (MCF7 breast) of over 100 µM. For the same compound, the TGI (OVCAR-8 ovarian) was over 100 µM, the TGI (XF 498 CNS) was over 100 µM and the TGI (DMS 114 small cell lung) was over 100 µM. It also gave a TGI (KM20L2 colon) of over 100 µM, a TGI (UACC-62 melanoma) of over 100 µM and a TGI (LOX IMVI melanoma) of over 100 µM. The TGI (HCT-15 colon) was over 100 µM, the TGI (P388/ADR leukemia) was over 100 µM and the TGI (UACC-257 melanoma) was over 100 µM. For the same compound, the TGI (IGROV1 ovarian) was over 100 µM, the TGI (SW-620 colon) was over 100 µM and the TGI (HOP-62 NSCLC) was over 100 µM. For the same compound, the TGI (CAKI-1 renal) was over 100 µM, the TGI (KM12 colon) was over 100 µM and the TGI (SK-MEL-5 melanoma) was over 100 µM. For the same compound, the TGI (OVCAR-4 ovarian) was over 100 µM, the TGI (HT29 colon) was over 100 µM and the TGI (DMS 273 small cell lung) was over 100 µM. It also gave a TGI (A498 renal) of over 100 µM, a TGI (EKVX NSCLC) of over 100 µM and a TGI (COLO 205 colon) of over 100 µM. It also gave a TGI (SNB-75 CNS) of over 100 µM, a TGI (OVCAR-3 ovarian) of over 66.1 µM and a TGI (OVCAR-5 ovarian) of over 100 µM. For the same compound, the TGI (U251 CNS) was over 100 µM, the TGI (HOP-92 NSCLC) was over 100 µM and the TGI (NCI-H23 lung) was over 100 µM. For the same compound, the TGI (SN12C renal) was over 100 µM, the TGI (HCC-2998 colon) was over 100 µM and the TGI (K-562 leukemia) was over 100 µM. The TGI (RXF 393 renal) was over 100 µM, the TGI (MOLT-4 leukemia) was over 100 µM and the TGI (CCRF-CEM leukemia) was over 100 µM. For the same compound, the TGI (SF-268 CNS) was over 100 µM, the TGI (SK-MEL-2 melanoma) was over 100 µM and the TGI (HOP-18 NSCLC) was over 100 µM.
